Assay results published in ChEMBL document CHEMBL1909294, “Translating clinical findings into knowledge in drug safety evaluation--drug induced liver injury prediction system (DILIps)” (PLoS Comput Biol, 2011).

Legend:
Hepatotoxicity [1] = tested on: Hepatotoxicity;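 on HepSE bilirubinemia: bilirubinemia hepatic side effect score drawn from the DILIps training data, a prediction system for drug-induced liver injury; call rule not given here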;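 on HepSE cholelithiasis: hepatic side effect score for cholelithiasis, drawn from the DILIps training data for predicting drug-induced liver injury; call rule not given here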;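 on HepSE cirrhosis: cirrhosis hepatic side effect score taken from the DILIps (drug-induced liver injury prediction) training set; call rule not given here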;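 on HepSE elevated liver function tests: hepatic side effect score for raised liver function tests, as recorded in the DILIps training set used for predicting drug-induced liver injury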; on HepSE hepatic failure: call rule not given here;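 on HepSE jaundice: Jaundice-related hepatic side-effect score drawn from the training data of the DILIps (drug-induced liver injury prediction system); call rule not given here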; on HepSE liver disease: call rule not given here
Hepatotoxicity [2] = tested on: Hepatotoxicity; remark: listed apart in the source;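 on HepSE bilirubinemia: bilirubinemia hepatic side effect score drawn from the DILIps training data, a prediction system for drug-induced liver injury; call rule not given here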;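 on HepSE cholelithiasis: hepatic side effect score for cholelithiasis, drawn from the DILIps training data for predicting drug-induced liver injury; call rule not given here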;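 on HepSE cirrhosis: cirrhosis hepatic side effect score taken from the DILIps (drug-induced liver injury prediction) training set; call rule not given here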;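 on HepSE elevated liver function tests: hepatic side effect score for raised liver function tests, as recorded in the DILIps training set used for predicting drug-induced liver injury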; on HepSE hepatic failure: call rule not given here;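 on HepSE jaundice: Jaundice-related hepatic side-effect score drawn from the training data of the DILIps (drug-induced liver injury prediction system); call rule not given here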; on HepSE liver disease: call rule not given here
Hepatotoxicity [3] = tested on: Hepatotoxicity; remark: listed apart in the source;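 on HepSE bilirubinemia: bilirubinemia hepatic side effect score drawn from the DILIps training data, a prediction system for drug-induced liver injury; call rule not given here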;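 on HepSE cholelithiasis: hepatic side effect score for cholelithiasis, drawn from the DILIps training data for predicting drug-induced liver injury; call rule not given here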;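 on HepSE cirrhosis: cirrhosis hepatic side effect score taken from the DILIps (drug-induced liver injury prediction) training set; call rule not given here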;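 on HepSE elevated liver function tests: hepatic side effect score for raised liver function tests, as recorded in the DILIps training set used for predicting drug-induced liver injury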; on HepSE hepatic failure: call rule not given here;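 on HepSE jaundice: Jaundice-related hepatic side-effect score drawn from the training data of the DILIps (drug-induced liver injury prediction system); call rule not given here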; on HepSE liver disease: call rule not given here
Hepatotoxicity [4] = tested on: Hepatotoxicity; remark: listed apart in the source;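 on HepSE bilirubinemia: bilirubinemia hepatic side effect score drawn from the DILIps training data, a prediction system for drug-induced liver injury; call rule not given here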;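 on HepSE cholelithiasis: hepatic side effect score for cholelithiasis, drawn from the DILIps training data for predicting drug-induced liver injury; call rule not given here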;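 on HepSE cirrhosis: cirrhosis hepatic side effect score taken from the DILIps (drug-induced liver injury prediction) training set; call rule not given here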;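 on HepSE elevated liver function tests: hepatic side effect score for raised liver function tests, as recorded in the DILIps training set used for predicting drug-induced liver injury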; on HepSE hepatic failure: call rule not given here;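 on HepSE jaundice: Jaundice-related hepatic side-effect score drawn from the training data of the DILIps (drug-induced liver injury prediction system); call rule not given here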; on HepSE liver disease: call rule not given here
Hepatotoxicity [5] = tested on: Hepatotoxicity; remark: listed apart in the source; on HepSE hepatic failure: call rule not given here; on HepSE liver disease: call rule not given here
Hepatotoxicity [6] = tested on: Hepatotoxicity; remark: listed apart in the source; on HepSE hepatic failure: call rule not given here; on HepSE liver disease: call rule not given here
Hepatotoxicity [7] = tested on: Hepatotoxicity; remark: listed apart in the source
Hepatotoxicity [8] = tested on: Hepatotoxicity; remark: listed apart in the source
Hepatotoxicity [9] = tested on: Hepatotoxicity; remark: listed apart in the source
Hepatotoxicity [10] = tested on: Hepatotoxicity; remark: listed apart in the source
Hepatotoxicity [11] = tested on: Hepatotoxicity; remark: listed apart in the source
Hepatotoxicity [12] = tested on: Hepatotoxicity; remark: listed apart in the source
Hepatotoxicity [13] = tested on: Hepatotoxicity; remark: listed apart in the source
Hepatotoxicity [14] = tested on: Hepatotoxicity; remark: listed apart in the source

Structure (SMILES) | HepSE_bilirubinemia (Hepatotoxicity [1]; Liver) | HepSE_liver disease (Hepatotoxicity [2]; Liver) | HepSE_cirrhosis (Hepatotoxicity [3]; Liver) | HepSE_hepatitis (Hepatotoxicity [4]; Liver) | HepSE_elevated liver function tests (Hepatotoxicity [9]; Liver) | HepSE_liver function tests abnormal (Hepatotoxicity [10]; Liver) | HepSE_bilirubinemia (Hepatotoxicity [1]) | HepSE_liver disease (Hepatotoxicity [2]) | HepSE_cirrhosis (Hepatotoxicity [3]) | HepSE_hepatitis (Hepatotoxicity [4]) | HepSE_cholelithiasis (Hepatotoxicity [5]) | HepSE_jaundice (Hepatotoxicity [6]) | HepSE_hepatic failure (Hepatotoxicity [7]) | HepSE_liver fatty (Hepatotoxicity [8]) | HepSE_elevated liver function tests (Hepatotoxicity [9]) | HepSE_liver function tests abnormal (Hepatotoxicity [10]) | HepSE_hepatomegaly (Hepatotoxicity [11]) | HepSE_Combined Scores (Hepatotoxicity [12]) | HepSE_hepatic necrosis (Hepatotoxicity [13]) | HepSE_cholecystitis (Hepatotoxicity [14]) | other results
Cc1cccc([C@H](C)c2cnc[nH]2)c1C [DEXMEDETOMIDINE] | 1 | 0 | 0 | 0 | 0 | 0 | – | – | – | – | – | – | – | – | – | – | – | – | – | – | HepSE_cholelithiasis (Hepatotoxicity [5]; Liver): 0; HepSE_jaundice (Hepatotoxicity [6]; Liver): 0; HepSE_hepatic failure (Hepatotoxicity [7]; Liver): 0; HepSE_liver fatty (Hepatotoxicity [8]; Liver): 0; HepSE_hepatomegaly (Hepatotoxicity [11]; Liver): 0; HepSE_Combined Scores (Hepatotoxicity [12]; Liver): 1; HepSE_hepatic necrosis (Hepatotoxicity [13]; Liver): 0; HepSE_cholecystitis (Hepatotoxicity [14]; Liver): 0
C[C@@H](CN1CC(=O)NC(=O)C1)N1CC(=O)NC(=O)C1 [DEXRAZOXANE] | – | – | – | – | – | – | 0 | 0 | 0 | 0 | 0 | 0 | 0 | 0 | 0 | 0 | 0 | 0 | 0 | 0 | –
CC1=NS(=O)(=O)c2cc(Cl)ccc2N1 [DIAZOXIDE] | – | – | – | – | – | – | 0 | 0 | 0 | 0 | 0 | 0 | 0 | 0 | 0 | 0 | 0 | 0 | 0 | 0 | –
O=C(O)Cc1ccccc1Nc1c(Cl)cccc1Cl [DICLOFENAC] | 0 | 0 | 1 | 1 | 0 | 0 | – | – | – | – | – | – | – | – | – | – | – | – | – | – | HepSE_cholelithiasis (Hepatotoxicity [5]; Liver): 0; HepSE_jaundice (Hepatotoxicity [6]; Liver): 1; HepSE_hepatic failure (Hepatotoxicity [7]; Liver): 1; HepSE_liver fatty (Hepatotoxicity [8]; Liver): 0; HepSE_hepatomegaly (Hepatotoxicity [11]; Liver): 0; HepSE_Combined Scores (Hepatotoxicity [12]; Liver): 5; HepSE_hepatic necrosis (Hepatotoxicity [13]; Liver): 1; HepSE_cholecystitis (Hepatotoxicity [14]; Liver): 0
Cc1onc(-c2c(Cl)cccc2Cl)c1C(=O)N[C@@H]1C(=O)N2[C@@H]1SC(C)(C)[C@@H]2C(=O)O [DICLOXACILLIN] | – | – | – | – | – | – | 0 | 0 | 0 | 1 | 0 | 0 | 0 | 0 | 0 | 1 | 0 | 2 | 0 | 0 | –
CCN(CC)CCOC(=O)C1(C2CCCCC2)CCCCC1 [DICYCLOMINE] | – | – | – | – | 0 | 0 | 0 | 0 | 0 | 0 | 0 | 0 | 0 | 0 | – | – | 0 | 0 | 0 | 0 | –
O=c1[nH]cnc2c1ncn2[C@H]1CC[C@@H](CO)O1 [DIDANOSINE] | – | – | – | – | – | – | 0 | 0 | 0 | 1 | 0 | 0 | 1 | 1 | 0 | 0 | 1 | 4 | 0 | 0 | –
CCN(CC)C(C)C(=O)c1ccccc1 (configuration not stated) [DIETHYLPROPION] | – | – | – | – | – | – | 0 | 0 | 0 | 0 | 0 | 0 | 0 | 0 | 0 | 0 | 0 | 0 | 0 | 0 | –
O=C(O)c1cc(-c2ccc(F)cc2F)ccc1O [DIFLUNISAL] | 0 | 0 | 0 | 1 | 0 | 0 | – | – | – | – | – | – | – | – | – | – | – | – | – | – | HepSE_cholelithiasis (Hepatotoxicity [5]; Liver): 0; HepSE_jaundice (Hepatotoxicity [6]; Liver): 1; HepSE_hepatic failure (Hepatotoxicity [7]; Liver): 0; HepSE_liver fatty (Hepatotoxicity [8]; Liver): 0; HepSE_hepatomegaly (Hepatotoxicity [11]; Liver): 0; HepSE_Combined Scores (Hepatotoxicity [12]; Liver): 2; HepSE_hepatic necrosis (Hepatotoxicity [13]; Liver): 0; HepSE_cholecystitis (Hepatotoxicity [14]; Liver): 0
C[C@H]1O[C@@H](O[C@H]2[C@@H](O)C[C@H](O[C@H]3[C@@H](O)C[C@H](O[C@H]4CC[C@@]5(C)[C@H](CC[C@@H]6[C@@H]5C[C@@H](O)[C@]5(C)[C@@H](C7=CC(=O)OC7)CC[C@]65O)C4)O[C@@H]3C)O[C@@H]2C)C[C@H](O)[C@@H]1O [DIGOXIN] | – | – | – | – | – | – | 0 | 0 | 0 | 0 | 0 | 0 | 0 | 0 | 0 | 0 | 0 | 0 | 0 | 0 | –
CN1C[C@H](C(=O)N[C@]2(C)O[C@@]3(O)[C@@H]4CCCN4C(=O)[C@H](Cc4ccccc4)N3C2=O)C[C@@H]2c3cccc4[nH]cc(c34)C[C@H]21 [DIHYDROERGOTAMINE] | – | – | – | – | – | – | 0 | 0 | 0 | 0 | 0 | 0 | 0 | 0 | 0 | 0 | 0 | 0 | 0 | 0 | –
COc1ccc([C@@H]2Sc3ccccc3N(CCN(C)C)C(=O)[C@@H]2OC(C)=O)cc1 [DILTIAZEM] | – | – | – | – | – | – | 0 | 0 | 0 | 0 | 0 | 0 | 0 | 0 | 0 | 0 | 0 | 0 | 0 | 0 | –
OCC(S)CS (configuration not stated) [DIMERCAPROL] | 0 | 0 | 0 | 0 | 0 | 0 | – | – | – | – | – | – | – | – | – | – | – | – | – | – | HepSE_cholelithiasis (Hepatotoxicity [5]; Liver): 0; HepSE_jaundice (Hepatotoxicity [6]; Liver): 0; HepSE_hepatic failure (Hepatotoxicity [7]; Liver): 0; HepSE_liver fatty (Hepatotoxicity [8]; Liver): 0; HepSE_hepatomegaly (Hepatotoxicity [11]; Liver): 0; HepSE_Combined Scores (Hepatotoxicity [12]; Liver): 0; HepSE_hepatic necrosis (Hepatotoxicity [13]; Liver): 0; HepSE_cholecystitis (Hepatotoxicity [14]; Liver): 0
